Counter-ions that a name gives are not always drawn. Marks after values point to notes of the source that are not given here.
Legend:
female rats = assay: Plasma metabolite profiling (GC-MS, LC-MS, SPE-LC-MS) in female rats dosed once daily over 28 days (OECD 407); format: in vivo, rat
Method: Each dose group in the studies consisted of five rats per sex. Additional groups of each 5 male and female animals served as controls. […] All animals of the animal population were kept under the same constant temperature (20-24±3° C.) and the same constant humidity (30-70%). The animals of the animal population were fed ad libitum. The food to be used was essentially free of chemical or microbial contaminants. Drinking water was also offered ad libitum. Accordingly, the water was free of chemical and microbial contaminants as laid down in the European Drinking Water Directive 98/83/EG. The illumination period was 12 hours light followed by 12 hours darkness (12 hours light, from 6:00 to 18:00, and 12 hours darkness, from 18:00 to 6:00). […] The test substances (compounds) in the Tables 1 to 17 below were dosed and administered as described in the Table 18.
In the morning of day 7, 14, and 28, blood was taken from the retroorbital venous plexus from fasted anaesthetized animals. From each animal, 1 ml of blood was collected with EDTA as anticoagulant. The samples were centrifuged for generation of plasma. All plasma samples were covered with a N2 atmosphere and then stored at −80° C. until analysis.
For mass spectrometry-based metabolite profiling analyses plasma samples were extracted and a polar and a non-polar (lipid) fraction was obtained. For GC-MS analysis, the non-polar fraction was treated with methanol under acidic conditions to yield the fatty acid methyl esters. Both fractions were further derivatised with O-methyl-hydroxyamine hydrochloride and pyridine to convert Oxogroups to O-methyloximes and subsequently with a silylating agent before analysis. In LC-MS analysis, both fractions were reconstituted in appropriate solvent mixtures. HPLC was performed by gradient elution on reversed phase separation columns. Mass spectrometric detection which allows target and high sensitivity MRM (Multiple Reaction Monitoring) profiling in parallel to a full screen analysis was applied as described in WO2003073464.
Steroids and their metabolites were measured by online SPE-LC-MS (Solid phase extraction-LC-MS).
Following comprehensive analytical validation steps, the data for each analyte were normalized against data from pool samples. These samples were run in parallel through the whole process to account for process variability. The significance of treatment group values specific for sex, treatmentduration and metabolite was determined by comparing means of the treated groups to the means of the respective untreated control groups using WELCH-test and quantified with treatment ratios versus control and p-values.
The identification of the most important biomarkers per toxicity pattern was done by a ranking of the analytes in the tables below. Therefore the metabolic changes in reference treatments of a given pattern (shown in the table) were compared with changes of the same metabolite in other unrelated treatments. […] The maximum absolute value of the respective TVALUE was taken to indicate the most important metabolite for the pattern.

male rats = assay: Plasma metabolite profiling (GC-MS, LC-MS, SPE-LC-MS) in male rats dosed once daily over 28 days (OECD 407); format: in vivo, rat; conditions: high dose, Table 14b
In short: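 Metabolites were measured by GC-MS (derivatised) and reversed-phase LC-MS, with steroids by online SPE-LC-MS, in plasma drawn from fasted rats on days 7, 14 and 28 of once-daily dosing (5/sex/group). Values are ratios versus sex-matched untreated controls, normalized to pool samples, with Welch-test p-values.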

[1] = female rats, plasma, high dose, day 7
[2] = female rats, plasma, high dose, day 14
[3] = female rats, plasma, high dose, day 28

SMILES: O=C(c1ccc(OCCN2CCCCC2)cc1)c1c(-c2ccc(O)cc2)sc2cc(O)ccc12 [Raloxifene Hydrochloride]
- Glycine, ratio versus control (female rats; [1]): 1.53 *
- Lysine, ratio versus control (female rats; [1]): 0.8 *
- Lysophosphatidylcholine (C17:0), ratio versus control (female rats; [1]): 0.74 *
- Phosphatidylcholine (C18:0, C20:3), ratio versus control (female rats; [1]): 0.73 *
- Phosphatidylcholine (C18:0, C22:6), ratio versus control (female rats; [1]): 0.87 *
- Proline, ratio versus control (female rats; [1]): 1.16 *
- TAG (C16:0, C18:2), ratio versus control (female rats; [1]): 2.05 *
- TAG (C18:2, C18:3), ratio versus control (female rats; [1]): 1.84 *
- TAG (DAG-Fragment), ratio versus control (female rats; [1]): 1.8 *
- TAG No 059, ratio versus control (female rats; [1]): 1.61 *
- Thyroxine (T4), ratio versus control (female rats; [1]): 1.36^
- Coenzyme Q9, ratio versus control (female rats; [2]): 1.29 *
- Glycine, ratio versus control (female rats; [2]): 1.51 *
- Lysine, ratio versus control (female rats; [2]): 0.61 *
- Lysophosphatidylcholine (C17:0), ratio versus control (female rats; [2]): 0.72 *
- Phosphatidylcholine (C16:0, C20:5), ratio versus control (female rats; [2]): 1.25 *
- Phosphatidylcholine (C18:0, C20:3), ratio versus control (female rats; [2]): 0.86 *
- Phosphatidylcholine (C18:0, C22:6), ratio versus control (female rats; [2]): 0.85 *
- Proline, ratio versus control (female rats; [2]): 1.2 *
- TAG (C16:0, C18:2), ratio versus control (female rats; [2]): 1.27 *
- TAG (C18:2, C18:3), ratio versus control (female rats; [2]): 1.31 *
- TAG (DAG-Fragment), ratio versus control (female rats; [2]): 1.4 *
- TAG No 059, ratio versus control (female rats; [2]): 1.47 *
- Thyroxine (T4), ratio versus control (female rats; [2]): 2.5 *
- Coenzyme Q9, ratio versus control (female rats; [3]): 1.31 *
- Glycine, ratio versus control (female rats; [3]): 1.4 *
- Lysine, ratio versus control (female rats; [3]): 0.81 *
- Lysophosphatidylcholine (C17:0), ratio versus control (female rats; [3]): 0.72 *
- Phosphatidylcholine (C18:0, C20:3), ratio versus control (female rats; [3]): 0.81 *
- Phosphatidylcholine (C18:0, C22:6), ratio versus control (female rats; [3]): 0.72 *
- TAG (C16:0, C18:2), ratio versus control (female rats; [3]): 1.95 *
- TAG (C18:2, C18:3), ratio versus control (female rats; [3]): 1.64 *
- TAG (DAG-Fragment), ratio versus control (female rats; [3]): 1.76 *
- TAG No 059, ratio versus control (female rats; [3]): 1.61 *
- Thyroxine (T4), ratio versus control (female rats; [3]): 1.57 *
- Coenzyme Q9, ratio versus control (female rats; rat, in vivo): 1.18 *
- Proline, ratio versus control (female rats; rat, in vivo): 1.14 *
- Cholesterol (male rats; m7): 0.44
- Choline plasmalogen No 02 (male rats; m7): 0.67
- Lignoceric acid (C24:0) (male rats; m7): 0.45
- Sphingomyelin (d18:1, C16:0) (male rats; m7): 0.52
- Sphingomyelin (d18:2, C16:0) (male rats; m7): 0.82
- erythro-Sphingosine (d18:1) (male rats; m7): 0.38
- Cholesterol (male rats; m14): 0.47
- Choline plasmalogen No 02 (male rats; m14): 0.69
- Lignoceric acid (C24:0) (male rats; m14): 0.39
- Sphingomyelin (d18:1, C16:0) (male rats; m14): 0.62
- Sphingomyelin (d18:2, C16:0) (male rats; m14): 0.78
- erythro-Sphingosine (d18:1) (male rats; m14): 0.49
- Cholesterol (male rats; m28): 0.63
- Choline plasmalogen No 02 (male rats; m28): 0.65
- Lignoceric acid (C24:0) (male rats; m28): 0.64
- Sphingomyelin (d18:1, C16:0) (male rats; m28): 0.65
- Sphingomyelin (d18:2, C16:0) (male rats; m28): 0.63
- erythro-Sphingosine (d18:1) (male rats; m28): 0.57

— US20150010928A1, “MEANS AND METHODS FOR ASSESSING AN ENDOCRINE DISEASE OR DISORDER” (priority 2012, published 2015)
